# Values quoted from earlier work, collected in patent publication US11826492B2, “Intratumoral drug delivery materials and methods for treating breast cancer” (BIOTRONIK AG, priority 2016, dated 2023).
# Like-named read-outs stand apart in the source and are kept apart here.
# Conditions: Porcine Coronary Arteries
Normalized Uptake (ng drug/mg tissue/μg drug on balloon) (3 days) [ng/mg/µg],Normalized Uptake (ng drug/mg tissue/μg drug on balloon) (7 days) [ng/mg/µg],SMILES
0.02,–,"CO[C@H]1C[C@@H]2CC[C@@H](C)[C@@](O)(O2)C(=O)C(=O)N2CCCC[C@H]2C(=O)O[C@H]([C@H](C)C[C@@H]2CC[C@@H](OCCO)[C@H](OC)C2)CC(=O)[C@H](C)/C=C(\C)[C@@H](O)[C@@H](OC)C(=O)[C@H](C)C[C@H](C)/C=C/C=C/C=C/1C [US 2014/0046254 Everolimus, Everolimus]"
–,0.04,"CO[C@H]1C[C@@H]2CC[C@@H](C)[C@@](O)(O2)C(=O)C(=O)N2CCCC[C@H]2C(=O)O[C@H]([C@H](C)C[C@@H]2CC[C@H](n3cnnn3)[C@H](OC)C2)CC(=O)[C@H](C)/C=C(\C)[C@@H](O)[C@@H](OC)C(=O)[C@H](C)C[C@H](C)/C=C/C=C/C=C/1C [US 2014/0046254 Zotarolimus, Zotarolimus]"
